Measurements from patent US10363251B2, “(+)-morphinans as antagonists of toll-like receptor 9 and therapeutic uses thereof” (Mallinckrodt LLC, priority 2009, dated 2019).
“Also recorded” adds a separate entry of the source.

Legend:
TLR2 = target: T1, TLR2 (Homo sapiens, UniProt O60603); assay: TLR2 antagonist screening, NF-κB-inducible SEAP reporter in HEK293 cells; type: cell-based; settings: for Average % Inhibition at TLR2: 10 μM, stimulated with HKLM at 10^8 cell/ml
T1 construct: expressed in transfected cells; host or cells: HEK293
T1 sequence (O60603 21-784, species assumed): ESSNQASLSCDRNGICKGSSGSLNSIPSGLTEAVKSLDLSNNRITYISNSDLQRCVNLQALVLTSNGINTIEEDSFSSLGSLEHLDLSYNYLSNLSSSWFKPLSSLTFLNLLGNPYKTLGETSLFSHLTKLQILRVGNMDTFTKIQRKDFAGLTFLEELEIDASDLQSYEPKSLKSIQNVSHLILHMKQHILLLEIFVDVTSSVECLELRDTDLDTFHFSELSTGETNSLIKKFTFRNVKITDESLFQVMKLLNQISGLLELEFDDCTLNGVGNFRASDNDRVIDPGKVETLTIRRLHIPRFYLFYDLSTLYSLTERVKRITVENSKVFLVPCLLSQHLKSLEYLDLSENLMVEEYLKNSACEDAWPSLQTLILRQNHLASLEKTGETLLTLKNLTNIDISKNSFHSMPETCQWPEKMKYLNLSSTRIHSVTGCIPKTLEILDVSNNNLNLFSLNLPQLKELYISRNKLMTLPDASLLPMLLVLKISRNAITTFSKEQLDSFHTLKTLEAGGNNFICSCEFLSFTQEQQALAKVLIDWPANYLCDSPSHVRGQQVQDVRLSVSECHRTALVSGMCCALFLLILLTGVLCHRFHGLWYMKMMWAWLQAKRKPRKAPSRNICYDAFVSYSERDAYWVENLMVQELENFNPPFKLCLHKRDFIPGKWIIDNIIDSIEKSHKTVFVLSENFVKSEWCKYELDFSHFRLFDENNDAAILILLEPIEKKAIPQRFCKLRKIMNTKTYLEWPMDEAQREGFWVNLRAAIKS
Experimental: (§1) Stimulation of TLRs 2, 3, 4, 5, 7, 8, and 9 was determined by assessing activation of the transcription factor NF-κB in HEK293 cells that were engineered to express the corresponding receptors. Assessment of TLR stimulation was based on the use of an NF-κB-inducible secreted alkaline phosphatase (SEAP) reporter system in which the SEAP reporter was under the control of a promoter inducible by NF-κB. Thus, the degree of activation of TLRs can be indirectly quantified spectrophotometrically by measuring the amount of the SEAP reporter that is produced.
(§2) The appropriate TLR-expressing cells were plated in Growth Medium in a 96-well plate (25,000-50,000 cells/well). The cells were stimulated with the appropriate positive control ligand or no ligand was added (negative control). The positive control ligands were: HKLM was used to stimulate TLR2; poly(I:C) was used to stimulate TLR3; LPS was used to stimulate TLR4; Flagellin was used to stimulate TLR5; CL097 was used to stimulate TLR7; CL075 was used to stimulate TLR8; CpG oligodeoxynucleotide (ODN) 2006 was used to stimulate TLR9. To test whether (+)-morphinans could block that activation of the TLR, the cells were pretreated with an antagonist for 30 minutes prior to addition of the positive control ligand. For this, 20 μL of the stock test compound solution (100 μM in H2O) was added to give a total volume of 200 μL. […] After a 16-20 hr incubation period at 37° C. in a CO2 incubator, 20 μL of the cell culture supernatant was added to 180 μL of QUANTI-Blue™ Media (InvivoGen, San Diego, Calif.), and the resulting solutions were incubated at 37° C. for an additional 1-3 hours according to the manufacturer's instructions. The OD's of the samples were then read at 650 nm on a Beckman Coulter AD 340C Absorbance Detector.

TLR4 = target: T2, TLR4 (Homo sapiens, UniProt O00206); assay: TLR4 antagonist screening, NF-κB-inducible SEAP reporter in HEK293 cells; type: cell-based; settings: for Average % Inhibition at TLR4: 10 μM, stimulated with LPS at 100 ng/ml
T2 construct: expressed in transfected cells; host or cells: HEK293
T2 sequence (O00206 24-839, species assumed): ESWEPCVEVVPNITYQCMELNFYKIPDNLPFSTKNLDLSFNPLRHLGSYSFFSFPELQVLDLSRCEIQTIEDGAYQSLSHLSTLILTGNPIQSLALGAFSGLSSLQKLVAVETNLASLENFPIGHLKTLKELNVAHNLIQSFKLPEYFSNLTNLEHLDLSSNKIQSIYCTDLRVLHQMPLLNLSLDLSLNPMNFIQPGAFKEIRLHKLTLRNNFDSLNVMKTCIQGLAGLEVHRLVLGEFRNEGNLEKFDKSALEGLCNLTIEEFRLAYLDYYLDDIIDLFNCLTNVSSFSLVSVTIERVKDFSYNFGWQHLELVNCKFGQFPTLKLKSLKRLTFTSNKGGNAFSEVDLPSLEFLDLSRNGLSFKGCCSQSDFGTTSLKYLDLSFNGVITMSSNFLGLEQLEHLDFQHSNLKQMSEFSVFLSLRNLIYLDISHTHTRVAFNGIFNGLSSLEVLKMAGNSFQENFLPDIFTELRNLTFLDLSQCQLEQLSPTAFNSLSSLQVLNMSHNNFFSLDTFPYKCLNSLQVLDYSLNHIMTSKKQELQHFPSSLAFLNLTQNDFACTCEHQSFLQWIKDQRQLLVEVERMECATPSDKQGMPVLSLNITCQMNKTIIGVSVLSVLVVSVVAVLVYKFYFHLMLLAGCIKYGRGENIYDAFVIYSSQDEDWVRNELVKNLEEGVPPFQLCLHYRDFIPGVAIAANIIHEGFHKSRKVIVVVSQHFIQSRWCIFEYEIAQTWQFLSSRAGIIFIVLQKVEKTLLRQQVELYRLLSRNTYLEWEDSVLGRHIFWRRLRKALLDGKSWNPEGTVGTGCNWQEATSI
T2 sequence (Q9Y6Y9 17-160 partner limits assumed, species assumed): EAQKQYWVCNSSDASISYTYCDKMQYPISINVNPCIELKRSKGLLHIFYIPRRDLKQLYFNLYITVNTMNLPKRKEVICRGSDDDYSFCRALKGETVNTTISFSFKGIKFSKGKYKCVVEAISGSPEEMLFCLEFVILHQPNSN
Experimental: as §1, §2

[1] = test system: APAP-induced liver toxicity; assay: Acetaminophen (APAP)-induced hepatotoxicity model; type: in vivo, mouse; settings: APAP 500 mg/Kg ip, 12 hours post-APAP; for Protection from APAP-induced toxicity: test doses and timing per Table 6; for Liver histology scores (necrosis and hemorrhage) / Serum alanine transaminase (ALT) levels: vs APAP alone
Experimental: For this, APAP-induced liver toxicity was induced in male C57BL/6 mice aged between 8-10 weeks by a single intraperitoneal (ip) injection of APAP in PBS at a dose of 500 mg/Kg (Imaeda et al. (2009) J. Clin. Invest. 119(2):305-314). The ability of (+)-morphinans to reduce liver toxicity was tested in the following groups:
The (+)-morphinan (or PBS) was either administered as a single subcutaneous (sc) or ip injection concurrent with the APAP injection or one hour prior to the APAP injection.
The mice were sacrificed 12 hours post-APAP treatment. Liver samples were stained with H&E and analyzed for signs of necrosis and hemorrhage. Histology scores were assigned using the standard rating scale. The levels of serum alanine transaminase (ALT) were also measured in each animal using a standard assay.

[2] = test system: hepatic ischemia reperfusion (IR) injury; assay: Hepatic ischemia reperfusion (IR) injury model; type: in vivo, mouse
Experimental: Anesthetized mice were subjected to 1 hour of hepatic ischemia by occluding the vasculature supplying the left and median lobes (ischemic lobes) of the liver by a microvascular clamp. Thereafter, the blood supply was resumed (reperfusion). Some animals were sacrificed after 3 hour of reperfusion, and others after 12 hours or reperfusion. The experimental group received Cmpd II-78 at a dose of 80 mg/kg given intraperitoneally 1 hour prior to starting ischemia. The compound was administered before the start of ischemia to mimic the presumed clinical timing of delivery.
Livers were sectioned, stained, examined, and scored (Suzuki scoring system) based on the presence and/or severity of sinusoidal congestion, cytoplasmic vacuolization, and necrosis of parenchymal cells, as indicated in the table below. The levels of serum alanine transaminase (ALT) were also measured using a standard assay.
IL-1β, MCP-1, and NLPR3 have pro-inflammatory and tissue damaging properties, and IL-1R antagonist (IL-1Ra) has anti-inflammatory and pro-reparative functions in the liver. MAP kinases are part of an important cytoplasmic signaling cascade that are known to be activated (i.e., phosphorylated) by IR. The levels of IL-1β, MCP-1, NLPR3, and IL-1Ra mRNA were determined in whole liver (at the 12 hour time point) using standard techniques (e.g., RT-PCR). The activation of MAP kinases was determined in whole liver lysates by Western blotting using phospho-specific antibodies (12 hour time point).

TLR9 = assay: IL-1β up-regulation in peritoneal macrophages by TLR9 agonist ODN2395; type: cell-based
Source text: (§3) TLR9 signalling involves activation of NF-κB and IRF downstream pathways. The (+)-morphinan inhibited both of these pathways following activation of TLR9 (but not activation of TLR4 or other receptors). The type C TLR9 agonist, ODN2395, and the TL4 agonist, LPS, both induce up-regulation of IL-1β in peritoneal macrophages via activation of NF-κB.

[3] = test system: cytoplasmic DNA receptor AIM2; assay: IFN-β up-regulation in plasmacytoid dendritic cells by poly (dA:dT); type: cell-based
Source text: as §3

acute pancreatitis = assay: Caerulein-induced acute pancreatitis model; type: in vivo, mouse; settings: 30 mg/kg subcutaneously, vs saline
Experimental: Acute pancreatitis can be induced in rodents by administration of caerulein, a CCK analog derived from derived from the Australian tree frog Litoria caerulea. To determine whether a (+)-morphinan could reduce the inflammation and/or consequences of pancreatitis, the following example was performed. Mice were administered subcutaneously an effective dose of caerulein and either saline or Cmpd II-78 (30 mg/kg). After the standard period of time, the mice were sacrificed. Pancreatic tissue sections were stained and examined for neutrophil infiltration, and pancreatic trypsin, serum amylase, and pancreatic caspase −1 activities were measure using standard assays.

[4] = whole liver, 12 hours of reperfusion

For C=CCN1CC[C@]23c4c5ccc(O)c4O[C@H]2C(=O)CC[C@]3(O)[C@H]1C5 [(+)-Naloxone, (+)-naloxone], the “Average % Inhibition at TLR2” value (TLR2) was 24%, the “Average % Inhibition at TLR4” value (TLR4) was 25% and the “Protection from APAP-induced toxicity” value [1] was “essentially no protection”. The “Protection from APAP-induced toxicity” value ([1]; listed as (+)-naloxone) was “did not affect acetaminophen-induced hepatotoxicity”, the “Liver histology scores (necrosis and hemorrhage)” value [1] was “did not improve the histology scores” and the “Serum alanine transaminase (ALT) levels” value [1] was “reduced the ALT levels”.
In the case of COc1ccc2c(c1O)[C@@]13CCN(C)[C@@H](C2)[C@H]1CC(OC)C(=O)C3 (stereo partly drawn) [Dihydrosinomenine, dihydrosinomenine], the “Average % Inhibition at TLR2” value (TLR2) is reported as 27% and the “Average % Inhibition at TLR4” value (TLR4) is reported as 23%.
In the case of CN[C@@H]1CC[C@]2(O)[C@@H]3Cc4ccc(O)c5c4[C@]2(CCN3CC2CC2)[C@@H]1O5 [II-78], the “Protection from APAP-induced toxicity” value [1] is reported as “provided protection”, the “Liver histology scores (necrosis and hemorrhage)” value [1] is reported as “reduced to about half” and the “Serum alanine transaminase (ALT) levels” value [1] is reported as “reduced significantly”. For the same compound, the “Histological Suzuki score (hepatic IR injury)” value ([2]; 80 mg/kg ip 1 hour prior to ischemia, 1 h ischemia, 3 and 12 hours of reperfusion) was “reduced hepatic ischemic reperfusion (IR) injury”, the “IR-induced serum ALT levels” value ([2]; 80 mg/kg ip, 3 and 12 hours of reperfusion) was “reduced IR-induced serum alanine transaminase (ALT) levels” and the “Liver injury (serum ALT)” value ([2]; 80 mg/kg ip, 3 hour time point) was “trend towards reduction”. For the same compound, the “Liver injury (serum ALT)” value ([2]; 80 mg/kg ip, 12 hour time point) was “significantly reduced liver injury”, the “IR-induced cleavage and activation of TLR9 (western blotting)” value ([2]; liver) was “reduction of IR-induced cleavage and activation of LTR9” and the “IR-induced activation of MAP kinases (western blotting)” value ([2]; whole liver lysates, 12 hour time point) was “reduction of IR-induced activation of MAP kinases”. For the same compound, the “Anti-inflammatory molecule IL-1Ra mRNA relative to β-actin” value [2, 4] was “increased an anti-inflammatory molecule”, the “IR-induced pro-inflammatory cytokines (IL-1β, MCP-1, NLPR3 mRNA relative to β-actin)” value [2, 4] was “reduced IR-induced pro-inflammatory cytokines” and the “IL-1β mRNA up-regulation (NF-κB pathway)” value (TLR9) was “response was inhibited; also recorded: reduced both NFκB- and IRF-dependent pathways downstream of TLR9”. For the same compound, the IFN-β up-regulation [3] was “this activation was not blocked”, the “Neutrophil infiltration in the pancreas” value (acute pancreatitis) was “dramatically reduced; also recorded: reduced neutrophil infiltration in the pancreas” and the “Pancreatic caspase 1 activity” value (acute pancreatitis) was “Significant reductions; also recorded: reduced pancreatic caspase 1 activity”. The Pancreatic trypsin activity (acute pancreatitis) was “Significant reductions; also recorded: reduced” and the Serum amylase (acute pancreatitis) was “Significant reductions; also recorded: reduced serum amylase”.
COC1=C[C@@H]2[C@@H]3Cc4ccc(OC)c(O)c4[C@]2(CCN3C)CC1=O [Sinomenine, sinomenine] showed an inhibition at 10 µM (TLR2; HEK293, stimulated with HKLM at 10^8 cell/ml) of 30% and an inhibition at 10 µM (TLR4; HEK293, stimulated with LPS at 100 ng/ml) of 24%.
